Test: Inhibition of Influenza A virus (A/PR 8/34 (H1N1)) hemagglutinin transfected in human HeLa cells assessed as reduction in low pH-indued polykaryon formation preincubated for 15 mins followed by pH 5.2 buffer addition and measured after 5 mins by giemsa staining based microscopic analysis

COC(=O)C[C@H](NC(=O)OC(C)(C)C)C(=O)N(Cc1ccc(F)cc1)C1(C(=O)NCc2ccccc2)CCN(Cc2ccccc2)CC1
IC50: 12 µM

— BindingDB's records for doi:10.1016/j.ejmech.2020.112223 (2020)
